Measured values as given in patent US20140000886A1, “PETROLEUM RECOVERY PROCESS AND SYSTEM” (Shell Oil Company, priority 2012, published 2014).

Test: Oil recovery from formation core by brine displacement followed by DMS displacement
Settings: after waterflooding with a brine solution
Method: Incremental recovery of oil from a formation core using an oil recovery formulation consisting of dimethyl sulfide following oil recovery from the core by water-flooding was measured to evaluate the effectiveness of DMS as a tertiary oil recovery agent.
Two 5.02 cm long Berea sandstone cores with a core diameter of 3.78 cm and a permeability between 925 and 1325 mD were saturated with a brine having a composition as set forth in Table 7.
After saturation of the cores with brine, the brine was displaced by a Middle Eastern Asphaltic crude oil having the characteristics as set forth above in Table 3 to saturate the cores with oil.
Oil was recovered from each oil saturated core by the addition of brine to the core under pressure and by subsequent addition of DMS to the core under pressure. Each core was treated as follows to determine the amount of oil recovered from the core by addition of brine followed by addition of DMS. Oil was initially displaced from the core by addition of brine to the core under pressure. A confining pressure of 1 MPa was applied to the core during addition of the brine, and the flow rate of brine to the core was set at 0.05 ml/min. The core was maintained at a temperature of 50° C. during displacement of oil from the core with brine. […]

Oil recovered, of the oil remaining in the core after the waterflood: approximately 60%
Structure (SMILES): CSC [Dimethyl Sulfide, dimethyl sulfide]
